A short description of this series: in vitro. The settings on record: human, hela cells.

Turning to `O=C(Nc1cc(N2CCCS2(=O)=O)ccc1F)c1cccnc1O` [CBK306320], the viability (commonly a read-out of living cells in per cent, often relative to untreated cells) at 28.5 h, 10 µM (% viability) was determined as 97.4%. The same measure, in the same setting: the same measure for `Cc1nc2ccccc2n1CC(=O)N(CCC#N)Cc1ccco1` [CBK306323]: 86.1%; for `O=C(NCCc1cccs1)NC1CCCc2c1cnn2CCO` (stereo not drawn) [CBK306324]: 92.6%; for `CCCCN(C)S(=O)(=O)NCc1cn2ccccc2n1` [CBK306329]: 97.9%. With `CC(C#N)(NC(=O)COc1ncnc2sc3c(c12)CCC3)C1CC1` (stereo not drawn) [CBK306333], under “% viability”, the viability at 28.5 h, 10 µM turned out to be 88.1%. The same measure, in the same setting: the same measure for `N#Cc1c(F)cccc1N1CCCC(C(=O)Nc2nncs2)C1` (stereo not drawn) [CBK306335]: 96.8%; for `CCc1nc(CC(=O)NC(c2ccc(F)cc2)C2CCCO2)cs1` (stereo not drawn) [CBK306336]: 117%; for `CC(N(C)CC(=O)NCc1ccc(OCC(N)=O)cc1)C(C)(C)C` (stereo not drawn) [CBK306338]: 99.2%. On the same count and under the same terms, the same measure for `CCOCCCNC(=O)C1CCN(c2cccc(F)c2C#N)CC1` [CBK306341]: 91.9%; for `O=C(NC1CC1)C1CCN(Cn2nnc3ccccc3c2=S)CC1` [CBK306342]: 94.1%. Regarding `N#Cc1cccc(C(=O)NCC2(N3CCOCC3)CCSC2)c1` (stereo not drawn) [CBK306344], the viability at 28.5 h, 10 µM (% viability) was 121%.

In the case of `CN(CC(N)=O)c1nc(-c2cccnc2)nc2ccccc12` [CBK306346], the viability at 28.5 h, 10 µM (% viability) turned out to be 87%. The same measure, in the same setting: the same measure for `Cc1ccnc(NCC2CCN(c3ccc4nnnn4n3)C2)c1` (stereo not drawn) [CBK306348]: 57.3%; for `Cc1ccsc1CN(C)C(=O)NC1CCCc2c1cnn2CCO` (stereo not drawn) [CBK306349]: 83%. Same read-out and setting: the same measure for `COCCSCc1cn2cc(Br)ccc2n1` [CBK306361]: 96.5%; for `Cn1cc(CCCCNC(=O)Cc2c[nH]c3ccc(Cl)cc23)cn1` [CBK306364]: 76%; for `Cc1ocnc1C(=O)Nc1nc2c(cc1C#N)CCC2` [CBK306365]: 92.7%.

Turning to `Cc1ccc(CCC(=O)Nc2nc3c(cc2C#N)CCC3)o1` [CBK306366], the viability at 28.5 h, 10 µM (% viability) came to 67.1%.

For `CCCOC1CCCN(S(=O)(=O)c2cnc3ccsc3c2)C1` (stereo not drawn) [CBK306367], where the note is “% viability”, the viability at 28.5 h, 10 µM came to 75.5%. Consider `O=C1CCN(Cc2nc(-c3cccc(C(F)(F)F)c3)no2)CCN1` [CBK306368], for which, where the note is “% viability”, the viability at 28.5 h, 10 µM came out at 109%. Same read-out and setting: the same measure for `CC(NC(=O)CC(F)(F)F)c1nc(-c2ccncc2)cs1` (stereo not drawn) [CBK306370]: 88.5%; for `CCN(Cc1ccc(C#N)cc1F)C(=O)C(NC(=O)OC)C(C)C` (stereo not drawn) [CBK306372]: 86.2%; for `CCNc1ncc(C(=O)N2CCOC(c3ccc(F)c(C)c3)C2)s1` (stereo not drawn) [CBK306375]: 95.4%. As for `Cc1n[nH]c(-c2ccccc2NS(=O)(=O)c2cnn(C(C)C)c2)n1` [CBK306377], where the note is “% viability”, the viability at 28.5 h, 10 µM stood at 84.1%.

Turning to `CC(=O)NCC1CCCN(Cc2c[nH]nc2-c2c(F)cccc2F)C1` (stereo not drawn) [CBK306382], the viability at 28.5 h, 10 µM (% viability) worked out at 99.6%.

On to `O=C1NC2(CCC2)C(=O)N1Cc1nn(-c2ccccc2)c2c1CCC2` [CBK306383], for which the viability at 28.5 h, 10 µM (% viability) came to 95.6%. Same read-out and setting: the same measure for `O=C(NCCC(=O)N1CCCCC1)c1cccc(OCc2cscn2)c1` [CBK306384]: 98.5%; for `Cc1cc(C(=O)NC2(C#N)CCSCC2)n(C)n1` [CBK306386]: 90.9%.

Consider `CC(c1ccc(Cl)cc1Cl)N(C)C(=O)Cn1cnc2c1CCCC2` (stereo not drawn) [CBK306387], for which the viability at 28.5 h, 10 µM (% viability) was determined as 88%.

With `O=C(CCc1nc(=O)c2c3c(sc2[nH]1)CCC3)N1CCCCCC1` [CBK306388], the viability at 28.5 h, 10 µM (% viability) stood at 90.4%. For `O=C1CCC(=O)N1CCN1CC(O)CC1c1cc(F)ccc1F` (stereo not drawn) [CBK306390], the viability at 28.5 h, 10 µM (% viability) came out at 92.8%. On to `NC(=O)Nc1ccc(C(=O)N2CCN(c3ccccc3)CC2)cc1` [CBK306392], for which the viability at 28.5 h, 10 µM (% viability) was 101%.

As for `Cc1cc(C)c2c(OCC(=O)NC(C)C)nn(C)c2n1` [CBK306393], the viability at 28.5 h, 10 µM (% viability) was determined as 87.4%. The same measure, in the same setting: the same measure for `Cn1cc(-c2nc(C3CCCCCN3C(=O)c3cc(Cl)c[nH]3)no2)cn1` (stereo not drawn) [CBK306396]: 86.4%. Same read-out and setting: the same measure for `Cc1c(C(=O)N2CC(n3cc(C(C)(C)O)nn3)C2)sc2cccc(F)c12` [CBK306398]: 91.4%; for `Cn1nccc1C1CCN(Cc2ccc(Oc3cnccn3)cc2)CC1` [CBK306400]: 104%. For the compound `Cc1ccc(-n2nc(C(=O)NC3(C#N)CCSC3)cc2C)cc1` (stereo not drawn) [CBK306403], the viability at 28.5 h, 10 µM (% viability) worked out at 86.9%. Still for that read-out and setting: the same measure for `CC(NC1CCCN(c2ccc(C#N)cc2)C1=O)c1cncc(F)c1` (stereo not drawn) [CBK306404]: 90.7%; for `CC(C)(C)C1CCC(OC(=O)Cn2nnc3ccccc3c2=O)CC1` (stereo not drawn) [CBK306408]: 88.9%; for `CC(C)c1nc(NCCc2nnc3n2CCC3)nc(N(C)C)n1` [CBK306409]: 89.1%. On to `COCC1CCN(c2ncc(C#N)cc2Cl)CC1` [CBK306410], for which the viability at 28.5 h, 10 µM (% viability) was 61.1%. The same measure, in the same setting: the same measure for `CC(=O)NC(CCC(N)=O)C(=O)N1CC2(CCCC2)c2c(F)cccc21` (stereo not drawn) [CBK306412]: 82.9%. The same measure, in the same setting: the same measure for `c1cnn(C2CCN(Cc3ccc(Oc4cnccn4)cc3)CC2)c1` [CBK306417]: 85.7%; for `N#Cc1nccnc1NCc1ccccc1CN1CCCC1CO` (stereo not drawn) [CBK306418]: 102%; for `CCn1c(SC(C)C(N)=O)nc2ccc(Br)cc2c1=O` (stereo not drawn) [CBK306424]: 74.6%. Still for that read-out and setting: the same measure for `CC(C)c1nsc(NCCc2nnc3n2CCCC3)n1` [CBK306425]: 92.4%; for `CC(C)c1nc(NCCc2nnc3n2CCCC3)nc(N(C)C)n1` [CBK306426]: 112%. On to `Cc1nnnn1-c1cc(NC(=O)NCCc2ccnn2C)ccc1F` [CBK306428], for which, under “% viability”, the viability at 28.5 h, 10 µM was found to be 87.8%. On the same count and under the same terms, the same measure for `CCOC(=O)c1cnn(C2CCCN(c3cccc(C#N)n3)C2)c1` (stereo not drawn) [CBK306430]: 81.5%; for `Cc1cnc(CN2CCNC(=O)C2c2ccccc2C(F)(F)F)o1` (stereo not drawn) [CBK306431]: 85.4%. Same read-out and setting: the same measure for `CCNC(=O)CNc1cc(C#N)ccc1C(F)(F)F` [CBK306432]: 86.5%; for `CN1CCCc2ccc(S(=O)(=O)Nc3ccc4nncn4c3)cc21` [CBK306435]: 98.6%. The same measure, in the same setting: the same measure for `CN(CC(O)CN1CCOCC1)C(=O)c1cc2sccc2[nH]1` (stereo not drawn) [CBK306437]: 95.8%; for `Cc1csc(N2CCC(Nc3cc(CO)ccc3Cl)CC2)n1` [CBK306440]: 89.7%; for `CNC(=O)CN1CCN(c2cc(C#N)ccc2C(F)(F)F)CC1=O` [CBK306441]: 93.6%. For `COC(=O)c1ccc(N2CCN(Cc3cnoc3C)C(C)C2)cc1` (stereo not drawn) [CBK306442], the viability at 28.5 h, 10 µM (% viability) came out at 109%.

Turning to `CC(C)c1nccn1CC(=O)N(C)C(C)c1ccc(F)c(F)c1` (stereo not drawn) [CBK306443], the viability at 28.5 h, 10 µM (% viability) was found to be 94.5%. Same read-out and setting: the same measure for `CC(C)(C)n1cc(NC2CCN(c3ccc(C#N)cc3)C2=O)cn1` (stereo not drawn) [CBK306445]: 85.7%. Same read-out and setting: the same measure for `Cc1cc(-c2nnc(NCc3ccnn3C)o2)c(C)o1` [CBK306446]: 84.6%; for `CCc1cc(=O)[nH]c(-c2ccc(N3CC(C(N)=O)CCC3C)nc2)n1` (stereo not drawn) [CBK306448]: 93.1%.

Regarding `CSc1nnc(CCCNc2cccc(C#N)n2)n1CC(C)C` [CBK306449], the viability at 28.5 h, 10 µM (% viability) turned out to be 96.8%. The same measure, in the same setting: the same measure for `O=c1c2cc(Br)cc(F)c2ncn1CCC1CCCO1` (stereo not drawn) [CBK306451]: 95.9%; for `O=C(c1ncccc1O)N1CC(O)CC1c1cc(F)ccc1F` (stereo not drawn) [CBK306452]: 97.9%.

On to `Cc1occc1SCC(=O)Nc1ccc(CN2CCOCC2)cc1` [CBK306453], for which, where the note is “% viability”, the viability at 28.5 h, 10 µM turned out to be 89.9%.

As for `Cn1nccc1CNc1ncn(CC(=O)N2CCCCCC2)n1` [CBK306454], the viability at 28.5 h, 10 µM (% viability) was determined as 90%.

On to `CN(C)C(=O)OCCn1c(=O)oc2cc(Cl)ccc21` [CBK306455], for which the viability at 28.5 h, 10 µM was found to be 81.9%.

Regarding `CS(=O)(=O)NC1CCCN(c2ccc3ccccc3n2)C1` (stereo not drawn) [CBK306457], under “% viability”, the viability at 28.5 h, 10 µM is 99.7%. `Cc1ccc(CS(=O)(=O)N(CC(C)C)C2CC2)c(F)c1` [CBK306460]: the viability at 28.5 h, 10 µM (% viability) was 82.9%. Same read-out and setting: the same measure for `Cc1nc(-c2ccc(N3CC(C(N)=O)CCC3C)nc2)[nH]c(=O)c1C` (stereo not drawn) [CBK306463]: 83.9%; for `Cc1cc2c(N3CCCC(NS(C)(=O)=O)C3)nccc2o1` (stereo not drawn) [CBK306464]: 93.4%.

Take `CC(C)(C)OC(=O)N1CCN(Cc2nc(-c3ccccc3)no2)CC1` [CBK306465]: where the note is “% viability”, the viability at 28.5 h, 10 µM came out at 99.8%. The same measure, in the same setting: the same measure for `COc1ccccc1CN(C)C(C)C(=O)Nc1sccc1C(N)=O` (stereo not drawn) [CBK306466]: 109%; for `CSCCN(C)C(=O)c1nnn(Cc2ccc(F)cc2F)c1C` [CBK306468]: 93.2%. Still for that read-out and setting: the same measure for `COCC(C)NC(=O)c1cc(-c2cccs2)nc2onc(C)c12` (stereo not drawn) [CBK306473]: 104%.

As to `CC(NC(=O)N1CCSCC1)c1cccc(Br)c1` (stereo not drawn) [CBK306475], the viability at 28.5 h, 10 µM (% viability) is 86.2%. Take `CCC(=O)Nc1ccc(-c2csc(N3CCCC(C)C3)n2)cc1` (stereo not drawn) [CBK306478]: the viability at 28.5 h, 10 µM (% viability) was found to be 83.3%. Still for that read-out and setting: the same measure for `CCNC(=O)CN(CC)S(=O)(=O)c1cccc(C#N)c1` [CBK306481]: 90.1%; for `CCCn1c(SCC(=O)N2CCOCC2)nc2cc(Cl)ccc2c1=O` [CBK306482]: 97.6%; for `COCC1(C)NC(=O)N(Cc2nn(-c3ccccc3)c3c2CCC3)C1=O` (stereo not drawn) [CBK306483]: 88.8%. On the same count and under the same terms, the same measure for `CCc1cc(=O)[nH]c(-c2ccc(N(C)CC(C)O)nc2)n1` (stereo not drawn) [CBK306484]: 88.4%; for `O=C(NS(=O)(=O)c1cccc(-c2nnco2)c1)C1C2C3CCC(C3)C12` (stereo not drawn) [CBK306488]: 89%; for `CCC(=O)Nc1ccc(-c2csc(N3CCC(C)CC3)n2)cc1` [CBK306490]: 111%. Turning to `CC(C)(C)C(O)CNc1ncnc2ccc(S(C)(=O)=O)cc12` (stereo not drawn) [CBK306494], the viability at 28.5 h, 10 µM (% viability) amounted to 76.8%. Turning to `CCC(CC)CNc1ncnc2ccc(S(C)(=O)=O)cc12` [CBK306495], the viability at 28.5 h, 10 µM (% viability) was 90.9%.

Values taken from paper PMC12040169 (PLOS Biology, 2025).
